Data on two molecules can be found in publication PMC11973282, “RAS70 peptide targets multiforme glioblastoma by binding to the plasma membrane heat shock protein HSP70” (Frontiers in Oncology, 2025).

What all share (format): cell-based
The test system of experiment [1] is mHsp70-negative dermal fibroblasts. As to the kind of experiment: Flow cytometry of FITC-labeled peptide internalization, negative control cells.
In experiment [2] the test system is human U87 glioblastoma cells. As to the kind of experiment: Flow cytometry of FITC-labeled peptide internalization, 24 h (also with antibody pre-treatment). Particulars: for peptide internalization after pre-treatment with anti-Hsp70 antibodies: cells pre-treated with anti-Hsp70 mAbs SPA-810, SPA-815 (1:250); for peptide uptake after pre-treatment with both anti-Hsp70 and anti-αvβ3/-αvβ5 mAbs: combination of antibodies; for mean fluorescence intensity (MFI), internalization of FITC-labeled peptide: U87, 50 μg/mL, 24 hours, flow cytometry, M ± SE, 3 independent experiments. The method, then:
(§1) The binding of the TKD-sCy5, RAS70-sCy5, and NGL-RGD-sCy5 peptides were analyzed using a CytoFLEX flow cytometer (Beckman Coulter, USA). A single cell suspension of C6, GL261, T98G, U87, U251, ANI, IBD, TMS (0.15×10^6 cells in mL^-1) were incubated for 30 minutes on ice in the dark with peptides in concentration of 75 μg/mL, and then washed with cold PBS solution. Cells without peptides were used as controls. To evaluate incorporation of the fluorescently-labeled peptides for longer period of co-incubation of 24 h cells (C6, GL261, U87, U251) were treated with FITC-labeled peptides, then washed with PBS and assessed on a CytoFLEX flow cytometer (Beckman Coulter, USA). Following FACS analysis cell pellet was further evaluated employing confocal microscopy Leica TCS SP8 (Leica Microsystems, Germany).
(§2) The incorporation of peptides over longer periods of co-incubation with brain tumor cells was additionally analyzed using a Cytomics FC500 flow cytometer (BeckmanCoulter, USA). Tumor cells (C6, GL261, U87, U251) were incubated with peptides (concentration 50 μg/mL) for 24 hours, washed with PBS. Internalization of FITC-labeled peptides was assessed by determining the mean fluorescence intensity (MFI). According to the study data ( Figure 6A ), it was shown that TKD peptide accumulated in all cell lines – 2120 ± 152 (C6), 2099 ± 107 (GL261), 2145 ± 189 (U87), 2373 ± 201 (U251) compared to the control scramble peptide (NGL) – 378 ± 48 (C6), 344 ± 57 (GL261), 301 ± 66 (U87), 313 ± 56 (U251) (P<0.001). […] Following FACS analysis the cell pellet was collected and evaluated for peptides cell uptake employing confocal microscopy ( Figure 6B ). The obtained microscopy data confirmed higher accumulation of RAS70 peptide in studied cell lines as compared to TKD or scramble peptides.
(§3) Figure 6 Evaluation of the mHsp70-targeting peptides internalization by glioma cells. (A) Flow cytometric evaluation of FITC-labeled peptide accumulation in tumor cell lines (rat glioma C6, mouse glioma GL261, human glioblastoma U87 and U251) after co-incubation for 24 hours. […] (B) Confocal microscopy assessment of FITC-labeled peptide accumulation in tumor cell lines (rat glioma C6, mouse glioma GL261, human glioblastoma U87 and U251) after co-incubation for 24 hours. […] (C) Analysis of the peptides uptake by human U87 glioblastoma cells following co-incubation for 24 hours.
To evaluate the mHsp70-mediated uptake of the peptides prior to co-incubation with either TKD or RAS70 peptides cells were pre-treated with anti-Hsp70 antibodies (SPA-810, SPA-815) that are known to target the membrane-bound chaperone on cancer cells ([37]). […] The tripeptide RGD (Arg-Gly-Asp) motif is known to bind to integrins, including αvβ3 and αvβ5 expressed on brain tumor cells and tumor endothelial cells ([38], [39]). […] As expected, we observed the decrease of NGL-RGD and RAS70 internalization by tumor cells but not of TKD or NGL peptides ( Figure 6C ).

The test system of experiment [3] is C6, GL261, T98G mHsp70-positive tumor cells. As to the kind of experiment: Confocal microscopy of peptide binding and internalization. Particulars: for internalization/accumulation in tumor cells by confocal microscopy: 75 μg/mL, co-incubation 15, 30 and 60 minutes. As to the method:
The binding of the TKD-sCy5, RAS70-sCy5, and NGL-RGD-sCy5 peptides to tumor cells was visualized using the Olympus FV3000 confocal system (Olympus, Japan). The C6, GL261, T98G, ANI, IBD, TMS cells (0.1×10^6 mL^-1 cells) were placed on Nunc™ Lab-Tek™ Chamber Slide System (Thermo Fisher Scientific, USA) and kept overnight. For primary GBM cells the chambers were pre-coated with Matrigel (0.2 mg/mL, Corning, New York, USA) to increase adhesion properties. The cells were incubated with peptides at a concentration of 75 μg/mL for 15, 30, and 60 minutes on ice in the dark. After the incubation cells were washed with PBS, fixed in a 10% formalin solution (Sigma-Aldrich, Burlington, USA), and mounted using a mounting medium containing DAPI (Ibidi, Graefelfing, Germany). Unstained cells were used as controls.
To study the mechanisms of peptide internalization, cells were incubated with peptides for 30 minutes in 37°C in a 5% CO2, washed with PBS, fixed in a 10% formalin solution (Sigma-Aldrich, USA), permeabilized with 0,1% Triton-X100 solution (Servicebio, Wuhan, China), blocked with 5% bovine serum albumin solution and incubated overnight with Alexa Fluor® 488 Anti-Rab5 antibody [EPR21801] (#ab270094, abcam, USA), and with Alexa Fluor® 488 Anti-LAMP1 antibody [EPR24395-31] (#281758, abcam, USA). After 24 hours cells were washed with 0,1% Tween-20 solution (Sigma-Aldrich, Burlington, USA) and mounted using a mounting medium containing DAPI (Ibidi, Graefelfing, Germany). To study the co-localization of the peptide with endolysosomal markers the raw confocal images (n = 10 for each group) were obtained in a 3-channel, 1024 × 1024 pixel format. Colocalization coefficient (τ-Kendall rank correlation value) was computed with the Coloc2 plugin and ImageJ 1.54g ([32]).
The next step was co-incubation of the target peptide RAS70 labeled with fluorescent dye Cy5 with tumor cells for 15, 30 and 60 minutes, followed by confocal microscopy analysis. […] To exclude processes of active internalization of the peptide, co-incubation of the cells on ice at +4°C was performed. […] Next, we evaluated the targeting properties of RAS70 on primary glioblastoma cells (ANI, IBD, TMS) obtained from neuro-oncological patients ([3]) that were additionally characterized for mHsp70, SOX2, NESTIN, GFAP, β3-Tubulin, Ki-67, and CD133 ( Figures 3A–I ).

In experiment [4] the test system is human glioblastoma U251 cells. As to the kind of experiment: Flow cytometry of FITC-labeled peptide internalization, 24 h. Particulars: 50 μg/mL, M ± SE, 3 independent experiments. The method, then: as §1, §2, §3
For experiment [5], the system named is GL261 (mouse glioma) cells. The experiment is described as above. Particulars: 50 μg/mL, M ± SE, 3 independent experiments. The method, then:
as §1, §2, §3

In experiment [6] the test system is C6 (rat glioma) cells. The description is as above. Particulars: 50 μg/mL, M ± SE, 3 independent experiments. As to the method: as §1, §2, §3

Take `CC(C)C[C@H](NC(=O)[C@H](CC(C)C)NC(=O)[C@H](CC(N)=O)NC(=O)[C@H](CC(N)=O)NC(=O)[C@H](CC(=O)O)NC(=O)[C@H](CCCCN)NC(=O)[C@@H](N)[C@@H](C)O)C(=O)NCC(=O)N[C@@H](CCCNC(=N)N)C(=O)N[C@@H](Cc1ccccc1)C(=O)N[C@@H](CCC(=O)O)C(=O)N[C@@H](CC(C)C)C(=O)N[C@@H](CO)C(=O)NCC(=O)NCCC(=O)N[C@@H](CCCNC(=N)N)C(=O)NCC(=O)N[C@@H](CC(=O)O)C(=O)O` [RAS70]: the “accumulation of peptide in mHsp70-negative cells” value in experiment [1] is “did not detect the accumulation”. In addition, the “peptide internalization after pre-treatment with anti-Hsp70 antibodies” value in experiment [2] (U87, 24 hours) was “significant decrease”. Moreover, in experiment [2] (U87, 24 hours, cells pre-treated with anti-αvβ3 (LM609) and anti-αvβ5 (P1F6) mAbs (1:200)), the “peptide internalization after pre-treatment with anti-αvβ3 and -αvβ5 antibodies” value was “decrease”. Further, the “peptide uptake after pre-treatment with both anti-Hsp70 and anti-αvβ3/-αvβ5 mAbs” value in experiment [2] (U87, 24 hours) is on record as “significant abrogation”. Moreover, the “mean fluorescence intensity (MFI), internalization of FITC-labeled peptide” value was 2999 ± 209 in experiment [2], 3678 ± 212 in experiment [4], 3012 ± 182 in experiment [5] and 2671 ± 201 in experiment [6]. In addition, the “co-localization with early endosome (Rab5) and lysosome (LAMP-1) markers” value in experiment [3] (30 minutes at 37°C, confocal microscopy) is on record as “only partially penetrated the cell via the endolysosomal pathway”. The “internalization/accumulation in tumor cells by confocal microscopy” value in experiment [3] (Cy5-labeled peptide) is on record as “higher accumulation of the peptide was detected as compared to TKD or control”. In addition, the subcellular localization entry in experiment [3] (Cy5-labeled peptide, confocal microscopy) was “predominantly localized in the cytoplasm of cells without penetrating into the nuclei”. Also, the “penetration into cells on ice” value in experiment [3] (co-incubation on ice at +4°C to exclude active internalization, data not shown) is “significant decrease in the penetration”.

Turning to `CC(C)C[C@H](NC(=O)[C@H](CC(C)C)NC(=O)[C@H](CC(N)=O)NC(=O)[C@H](CC(N)=O)NC(=O)[C@H](CC(=O)O)NC(=O)[C@H](CCCCN)NC(=O)[C@@H](N)[C@@H](C)O)C(=O)NCC(=O)N[C@@H](CCCNC(=N)N)C(=O)N[C@@H](Cc1ccccc1)C(=O)N[C@@H](CCC(=O)O)C(=O)N[C@@H](CC(C)C)C(=O)N[C@@H](CO)C(=O)NCC(=O)O` [TKD], in experiment [1], the “accumulation of peptide in mHsp70-negative cells” value was “did not detect the accumulation”. In experiment [2] (U87, 24 hours), the “peptide internalization after pre-treatment with anti-Hsp70 antibodies” value is “significant decrease”. Further, the “peptide uptake after pre-treatment with both anti-Hsp70 and anti-αvβ3/-αvβ5 mAbs” value in experiment [2] (U87, 24 hours) is listed as “significant abrogation”. Besides, the “mean fluorescence intensity (MFI), internalization of FITC-labeled peptide” value in experiment [2] came to 2145 ± 189; in experiment [4], 2373 ± 201; in experiment [5], 2099 ± 107; in experiment [6], 2120 ± 152. In experiment [3] (Cy5-labeled peptide), the “internalization/accumulation in tumor cells by confocal microscopy” value is recorded as “internalization of the TKD peptide by tumor cells was noted, reaching maximum absorption of the peptide after 60 minutes”.
